This note sets out measurements from US20240150293A1, “SPIROCYCLOHEXANE DERIVATIVES, PHARMACEUTICAL COMPOSITIONS CONTAINING THEM AND THEIR USES AS ANTI-APOPTOTIC INHIBITORS” (LES LABORATOIRES SERVIER, priority 2021, published 2024).

pIC50, pKi: −log10 of the molar value.

Test [1] deals with AMO-1 multiple myeloma xenograft. Briefly: Quantification of the cleaved form of PARP in vivo, IV (Example E). The conditions noted are these: single dose. Further details: species or system SCID mice. The protocol: (§1) The ability of the compounds of the invention to induce apoptosis was evaluated in vivo using the AMO-1 multiple myeloma xenograft.
1×10^7 cells were subcutaneously grafted into immunosuppressed SCID mice. 12-14 days later, when tumors had reached the appropriate volume, mice (3 per group) were treated once with the various compounds (IV). Tumor samples were recovered 6 or 16 hours after dosing and lysed. Cleared lysates were used for cleaved PARP quantification (as a marker of apoptosis induction) using the Meso Scale Discovery (MSD) Elisa platform test. Results are expressed as the ratio between cleaved PARP in treated mice over control mice.

In test [2] the target is Cy5-labelled Mcl1 (amino acids 171-321) C286S protein (UniProtKB Q07820) (Homo sapiens (Human), UniProt Q07820, C286S). Briefly: Inhibition of Mcl-1 by the fluorescence quenching assay (Example A, Method B). The format is binding. The method, boiled down:
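Eleven-point compound series incubated 2 h at room temperature with 1 nM Cy5-tagged protein and quencher-labelled PUMA peptide at 10, 20 or 400 nM in HEPES/NaCl/Tween 20, pH 7.4, 5% DMSO. IC50 for 50% fluorescence increase by 4-parameter fit, then Ki derived (complete cKi or estimated eKi).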

Test [3] deals with AMO-1 multiple myeloma xenografts. Briefly: Anti-tumor activity in vivo (Example D). Also on record: species or system SCID mice. As for the experimental part: The anti-tumor activity of the compounds of the invention was evaluated using AMO-1 multiple myeloma xenografts.
1×10^7 cells were subcutaneously grafted into immunosuppressed SCID mice. 7-10 days later, when the tumor mass had reached an average volume of about 150 mm^3, mice were treated with the various compounds once a week for 2 weeks (per os, HEC 1%/Tween 80 99:1). Tumor size was measured three times per week using electronic calipers.
At the end of the treatment cycle (d9), tumor growth inhibition (TGI) was calculated using the formula: […]
wherein DTV (Delta Tumor Volume) at Dx was calculated as follows: […]
(Tumor Volume at Dx)−(Tumor Volume at Randomization).

In a further test the test system is NCI-H929 cell lines. Briefly: In vitro cytotoxicity, CellTiter-Glo (CTG) assay (Example B, Method B). The test is classed as cell-based. Conditions: Homo sapiens, NCI-H929, 48 h, NCI-H929 cells, 48 h incubation, read-out: C50. The method, boiled down: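 ATP-based luminescence (CellTiter-Glo) after 48 h incubation at 37° C., 5% CO2 gave NCI-H929 viability. Eleven concentrations tested, highest final 30 μM, dispensed acoustically from 10 mM DMSO stocks; C50 defined as concentration reaching 50% viability.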

The subject of test [4] is AMO-1 multiple myeloma xenograft. Briefly: Quantification of the cleaved form of PARP in vivo, per os (Example C). Further details: species or system SCID mice. Conditions: single dose per os, tumors recovered 16 hours after dosing. As for the experimental part: as §1
1×10^7 cells were subcutaneously grafted into immunosuppressed SCID mice. 12-14 days later, when tumors had reached the appropriate volume, mice (3 per group) were treated once with the various compounds (per os, HEC 1%/Tween 80 99:1). Tumor samples were recovered 16 hours after dosing and lysed. Cleared lysates were used for cleaved PARP quantification (as a marker of apoptosis induction) using the Meso Scale Discovery (MSD) Elisa platform test. Results are expressed as the ratio between cleaved PARP in treated mice over control mice.

Setting [5] is: 60 mpk per os once a week for 2 weeks.

Usually pKi stands for the negative decadic logarithm of the Ki, by convention in mol/L.

Sequence of Cy5-labelled Mcl1 (amino acids 171-321) C286S protein (Q07820 171-321 C286S): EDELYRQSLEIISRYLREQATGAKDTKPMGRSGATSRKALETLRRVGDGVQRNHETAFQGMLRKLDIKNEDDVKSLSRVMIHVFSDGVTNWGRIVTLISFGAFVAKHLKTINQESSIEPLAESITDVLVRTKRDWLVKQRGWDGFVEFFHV

For the molecule `C[C@@H](COc1ccnc2c1[C@H](C)CCC2)C[C@H]1Cc2cc3c(cc2[C@]12CC[C@@](Nc1cccc(Cl)c1)(C(=O)O)CC2)OCO3` [Example 840, (1r,4S,6′S)-4-(3-chloroanilino)-6′-[(2R)-2-methyl-3-{[(5R)-5-methyl-5,6,7,8-tetrahydroquinolin-4-yl]oxy}propyl]-6′,7′-dihydro-2′H-spiro[cyclohexane-1,5′-indeno[5,6-d][1,3]dioxole]-4-carboxylic acid], the “Cleaved PARP (fold to control)” value is 127.8 fold to control in test [1] (15 mpk IV, time-point 6 h); 166.3 fold to control in test [1] (30 mpk IV, time-point 6 h); 138.2 fold to control in test [1] (30 mpk IV, time-point 16 h); 19.2 fold to control in test [4] (30 mpk); 29.4 fold to control in test [4] (60 mpk). Besides, the pKi in test [2] was 10.26. The “% TGI (d9)” value in test [3] (30 mpk per os once a week for 2 weeks) amounted to 83.8%; in test [3] (setting [5]) it was 119.8%. Besides, the pIC50 in the test with NCI-H929 cell lines was 7.52.
Consider `COCc1ccc2c(c1)[C@]1(CC[C@@](Nc3cccc(Cl)c3)(C(=O)O)CC1)[C@@H](C[C@@H](C)COc1ccnc3c1[C@H](C)CCC3)C2` [Example 919, (1r,2′S,4S)-4-(3-chloroanilino)-6′-(methoxymethyl)-2′-[(2R)-2-methyl-3-{[(5R)-5-methyl-5,6,7,8-tetrahydroquinolin-4-yl]oxy}propyl]-2′,3′-dihydrospiro[cyclohexane-1,1′-indene]-4-carboxylic acid], for which the “Cleaved PARP (fold to control)” value is given as 185.6 fold to control in test [1] (15 mpk IV, time-point 6 h); 199.9 fold to control in test [1] (30 mpk IV, time-point 6 h); 69.7 fold to control in test [1] (30 mpk IV, time-point 16 h); 6.7 fold to control in test [4] (30 mpk); 9.7 fold to control in test [4] (60 mpk). For the same molecule, the pKi in test [2] was 10.57. Also, in test [3] (setting [5]), the “% TGI (d9)” value was 121%. Besides, the pIC50 with NCI-H929 cell lines was 7.41.
